This note sets out measurements from patent US10065990B2, “Cyclic peptide compound, and preparation method, pharmaceutical composition and use thereof” (HANGZHOU GUANYU BIO-MEDICAL CO., LTD, priority 2013, dated 2018).

Structures are written as SMILES. Read-outs that look alike come from different tables or passages of the source.

One assay deals with T1, HDAC7 (Homo sapiens, UniProt Q8WUI4).
T1 sequence (Q8WUI4 1-952): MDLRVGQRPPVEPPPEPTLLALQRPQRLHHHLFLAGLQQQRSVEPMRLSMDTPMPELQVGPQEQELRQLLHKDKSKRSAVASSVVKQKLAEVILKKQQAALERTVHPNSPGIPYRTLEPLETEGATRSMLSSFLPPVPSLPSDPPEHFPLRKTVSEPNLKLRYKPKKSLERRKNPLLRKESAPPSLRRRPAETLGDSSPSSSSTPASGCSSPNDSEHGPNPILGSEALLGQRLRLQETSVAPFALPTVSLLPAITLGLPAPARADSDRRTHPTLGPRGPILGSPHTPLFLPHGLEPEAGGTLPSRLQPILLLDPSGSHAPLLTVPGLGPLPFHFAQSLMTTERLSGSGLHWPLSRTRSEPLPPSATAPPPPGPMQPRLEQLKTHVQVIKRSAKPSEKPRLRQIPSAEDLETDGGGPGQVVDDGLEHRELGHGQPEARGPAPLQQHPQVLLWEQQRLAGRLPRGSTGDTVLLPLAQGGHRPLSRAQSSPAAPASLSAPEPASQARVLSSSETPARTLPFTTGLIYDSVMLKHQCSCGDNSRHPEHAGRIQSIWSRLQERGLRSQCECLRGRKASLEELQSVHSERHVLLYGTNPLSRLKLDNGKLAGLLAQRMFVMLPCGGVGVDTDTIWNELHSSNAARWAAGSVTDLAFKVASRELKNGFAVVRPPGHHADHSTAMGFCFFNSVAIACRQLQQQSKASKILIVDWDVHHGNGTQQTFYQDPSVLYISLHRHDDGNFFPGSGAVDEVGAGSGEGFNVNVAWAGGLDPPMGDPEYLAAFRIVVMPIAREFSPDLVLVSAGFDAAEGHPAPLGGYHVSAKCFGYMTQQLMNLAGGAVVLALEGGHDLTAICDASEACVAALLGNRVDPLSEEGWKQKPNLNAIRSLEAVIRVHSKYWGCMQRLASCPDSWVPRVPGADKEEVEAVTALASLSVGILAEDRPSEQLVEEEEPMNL
The assay can be described thus: HDAC biochemical activity measurement (fluorescent substrate deacetylation).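 As to all read-outs here: fluorogenic deacetylation assay using acetyl-lysine substrate at 20 µM, enzyme and compound incubated 30 min at 37 °C, then developer added, fluorescence read at 360/460 nm.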 The following applies: for IC50 HDAC7: 37° C. 30 minutes.

The subject of assay [1] is A549 (human lung cancer cells). The assay can be described thus: MTT cancer cell growth inhibition. The following applies: Homo sapiens, A549, 72 h, MTT, 72 hours incubation, read-out: GI50 A54. In kind it is cell-based. In outline: (§1)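 Following overnight attachment of 1500 cells per well, each line was exposed to test drug (final 10^−5 to 10^−10 M) for 72 h in a humidified 37° C., 5% CO2 incubator. Four hours with MTT, DMSO dissolution of formazan, and a 570 nm reading yielded viability data used for GI50.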

For assay [2], the system named is BGC-823 (human gastric cancer cells). In words: MTT cancer cell growth inhibition. It is filed as cell-based. The following applies: Homo sapiens, BGC-823, 72 h, MTT, 72 hours incubation, read-out: GI50 BG. In outline:
as §1

Assay [3] has as its system Bel-7402 (human hepatoma cells). The assay can be described thus: MTT cancer cell growth inhibition. It is filed as cell-based. The following applies: Homo sapiens, Bel-7402, 72 h, MTT, 72 hours incubation, Bel-7402 cells; read-out: GI50 Bel-7402. In outline: as §1
Assay [4] relates to DU145 (human prostate cancer cells). In words: MTT cancer cell growth inhibition. The following applies: Homo sapiens, DU-145, 72 h, MTT, 72 hours incubation, read-out: GI50 Du1. In kind it is cell-based. In short, it runs like this:
as §1

In assay [5] the test system is H1975 (non-small cell lung adenocarcinoma). The assay can be described thus: MTT cancer cell growth inhibition. In kind it is cell-based. The following applies: Homo sapiens, NCI-H1975, 72 h, MTT, 72 hours incubation, H1975 cells; read-out: GI50 H1975. In outline: as §1
Assay [6] relates to HCC827 (human non-small cell lung cancer cells). The assay can be described thus: MTT cancer cell growth inhibition. It is filed as cell-based. The following applies: Homo sapiens, HCC827, 72 h, MTT, 72 hours incubation, HCC827 cells; read-out: GI50 HCC827. In outline:
as §1

Assay [7] concerns HT1080 (human fibrosarcoma cells). In words: MTT cancer cell growth inhibition. In kind it is cell-based. The following applies: Homo sapiens, HT-1080, 72 h, MTT, 72 hours incubation, read-out: GI50 HT1. In outline:
as §1

The test system of assay [8] is Hela (human cervical cancer cells). In words: MTT cancer cell growth inhibition. The following applies: Homo sapiens, HeLa, 72 h, MTT, 72 hours incubation, read-out: GI50 Hela. It is filed as cell-based. In outline:
as §1

Assay [9] has as its system Huh-7 (human hepatoma cells). The assay can be described thus: MTT cancer cell growth inhibition. In kind it is cell-based. The following applies: Homo sapiens, Huh-7, 72 h, MTT, 72 hours incubation, Huh-7 cells; read-out: GI50 Huh-7. In outline:
as §1

The subject of assay [10] is K562 (human leukemia cells). In words: MTT cancer cell growth inhibition. The following applies: Homo sapiens, K562, 72 h, MTT, 72 hours incubation, K562 cells; read-out: GI50 K562. It is filed as cell-based. In short, it runs like this: as §1
The subject of assay [11] is KBM-5 (human chronic myelogenous leukemia). The assay can be described thus: MTT cancer cell growth inhibition. It is filed as cell-based. The following applies: Homo sapiens, KBM5, 72 h, MTT, 72 hours incubation, KBM-5 cells; read-out: GI50 KBM-5. In short, it runs like this: as §1
Assay [12] relates to KBM5-T315I (human chronic myelogenous leukemia). In words: MTT cancer cell growth inhibition. It is filed as cell-based. The following applies: Homo sapiens, 72 h, MTT, 72 hours incubation, KBM5-T315I cells; read-out: GI50 KBM5-T315I. In short, it runs like this: as §1
The subject of assay [13] is MCF-7 (human breast cancer cells). In words: MTT cancer cell growth inhibition. In kind it is cell-based. The following applies: Homo sapiens, MCF7, 72 h, 72 hours incubation, read-out: GI50 MCF. In outline:
as §1

Assay [14] deals with MDA-MB-231 (breast cancer cells). The assay can be described thus: MTT cancer cell growth inhibition. It is filed as cell-based. The following applies: Homo sapiens, MDA-MB-231, 72 h, read-out: GI50 MDA-MB-231, MTT, 72 hours incubation, MDA-MB-231 cells. In outline:
as §1

The test system of assay [15] is MOLT-4 (human acute lymphoblastic leukemia cells). In words: MTT cancer cell growth inhibition. In kind it is cell-based. The following applies: Homo sapiens, MOLT-4, 72 h, MTT, 72 hours incubation, read-out: GI50 Mol. In outline: as §1
Assay [16] relates to N-87 (human gastric cancer cells). The assay can be described thus: MTT cancer cell growth inhibition. In kind it is cell-based. The following applies: Homo sapiens, 72 h, MTT, 72 hours incubation, N-87 cells; read-out: GI50 N-87. In outline:
as §1

In assay [17] the test system is PANC-1 (Pac-1, human pancreatic cancer cells). In words: MTT cancer cell growth inhibition. The following applies: Homo sapiens, PANC-1, 72 h, MTT, 72 hours incubation, read-out: GI50 PAN. It is filed as cell-based. In short, it runs like this: as §1
The subject of assay [18] is SGC-7901 (human gastric cancer cells). In words: MTT cancer cell growth inhibition. In kind it is cell-based. The following applies: Homo sapiens, SGC-7901, 72 h, MTT, 72 hours incubation, SGC-7901 cells; read-out: GI50 SGC-7901. In short, it runs like this:
as §1

The subject of assay [19] is U937 (human leukemia cells). The assay can be described thus: MTT cancer cell growth inhibition. The following applies: Homo sapiens, U-937, 72 h, MTT, 72 hours incubation, read-out: GI50 U93. It is filed as cell-based. In outline: as §1
Assay [20] deals with lncap (prostate cancer cells). In words: MTT cancer cell growth inhibition. In kind it is cell-based. The following applies: Homo sapiens, LNCaP, 72 h, MTT, 72 hours incubation, read-out: GI50 lnca. In outline: as §1

Regarding `C/C=C1\NC(=O)c2cc(F)cc(n2)CNC(=O)C[C@@H](/C=C/CCSC(=O)CCCCCC)OC(=O)[C@H](C(C)C)NC1=O` [Example 34], the “IC50 HDAC7” value against HDAC7 is reported as “no activity”. Moreover, the concentration for 50% growth inhibition (GI50) (in general, the concentration that inhibits growth by half) in assay [1] worked out at 40 nM; in [2] it was 60 nM; in assay [3], 94 nM; in assay [4], 50 nM; in assay [5] it was 34 nM; in assay [6] it was 94 nM. The GI50 in assay [7] turned out to be 90 nM; in [8] it was 70 nM; in assay [9], 49 nM; in [10], 53 nM; in assay [11], 74 nM; in assay [12], 53 nM. In addition, the GI50 in assay [13] was found to be 50 nM; in [14], 49 nM; in [15], 40 nM; in [16], 67 nM; in [17], 90 nM; in assay [18], 49 nM. The GI50 in assay [19] turned out to be 30 nM; in assay [20] it was 40 nM.
Regarding `C/C=C1\NC(=O)c2nc(ccc2SCC)CNC(=O)C[C@@H](/C=C/CCSC(=O)CCCCC)OC(=O)[C@H](C(C)C)NC1=O` [Compound 253], on HDAC7, the “IC50 (μM) HDAC7” value is “no activity”. The GI50 in [1] (A549 cells) came out at 30 nM; in assay [2] (BGC-823 cells), 50 nM; in [3], 87 nM; in [4] (DU145 cells), 20 nM; in assay [5] it was 57 nM; in assay [6], 37 nM. The GI50 in assay [7] (HT1080 cells) turned out to be 50 nM; in assay [8] (Hela cells) it was 50 nM; in [9] it was 72 nM; in assay [10] it was 11 nM; in assay [11] it was 16 nM; in assay [12], 78 nM. Moreover, the 50% growth inhibitory concentration (GI50) in assay [13] (MCF-7 cells) is 60 nM; in assay [14] it was 69 nM; in assay [15] (MOLT-4 cells) it was 80 nM; in assay [16] it was 35 nM; in assay [17] (PANC-1 cells) it was 60 nM; in assay [18], 18 nM. The concentration for 50% growth inhibition (GI50) in [19] (U937 cells) stood at 30 nM; in [20] (lncap cells), 20 nM.
Consider `C/C=C1\NC(=O)c2cccc(n2)CNC(=O)C[C@@H](/C=C/CCS)OC(=O)[C@H](Cc2cccc3ccccc23)NC1=O` [Compound 123], for which, on HDAC7, the “IC50 HDAC7” value is “no activity”. Further, the 50% growth inhibitory concentration (GI50) in assay [1] worked out at 60 nM; in [2] it was 40 nM; in assay [3], 27 nM; in assay [4], 60 nM; in assay [5] it was 21 nM; in assay [6], 69 nM. The GI50 in assay [7] stood at 90 nM; in [8], 90 nM; in [9], 35 nM; in [10], 36 nM; in assay [11], 68 nM; in [12], 67 nM. Also, the 50% growth inhibitory concentration (GI50) worked out at 60 nM in [13]; 39 nM in assay [14]; 90 nM in assay [15]; 62 nM in assay [16]; 40 nM in [17]; 51 nM in assay [18]. Besides, the GI50 stood at 60 nM in assay [19] and 90 nM in [20].
As for `C/C=C1\NC(=O)c2cc(SC)cc(n2)CNC(=O)C[C@@H](/C=C/CCS)OC(=O)[C@H](C(C)C)NC1=O` [Compound 227], at HDAC7, the “IC50 HDAC7” value is listed as “no activity”. Moreover, the 50% growth inhibitory concentration (GI50) in assay [1] (A549 cells) is 20 nM; in assay [2] (BGC-823 cells), 50 nM; in assay [3] it was 72 nM; in [4] (DU145 cells), 60 nM; in [5], 35 nM; in assay [6] it was 45 nM. The GI50 came to 70 nM in [7] (HT1080 cells); 70 nM in [8] (Hela cells); 17 nM in [9]; 23 nM in [10]; 49 nM in [11]; 55 nM in assay [12]. The 50% growth inhibitory concentration (GI50) in assay [13] (MCF-7 cells) is 20 nM; in assay [14], 51 nM; in assay [15] (MOLT-4 cells) it was 60 nM; in [16] it was 19 nM; in assay [17] (PANC-1 cells), 10 nM; in assay [18] it was 53 nM. Moreover, the GI50 in assay [19] (U937 cells) was 40 nM; in assay [20] (lncap cells) it was 20 nM.
